Reference: the NIST ThermoML archive (doi:10.1016/j.fluid.2009.11.007)

Test: xn = mol fraction of the nth substance listed
Details: Gas, Vibrating tube method

CCCCCCCCCCCCCCCC(=O)O [hexadecanoic acid] + O=C=O
Details | mass density [kg/m3]
313 K, 12110 kPa, x1 = 0.0003534 | 724.5
313 K, 12150 kPa, x1 = 0.0003534 | 725.8
313 K, 12360 kPa, x1 = 0.0003534 | 731.2
313 K, 12530 kPa, x1 = 0.0003534 | 735.3
313 K, 12770 kPa, x1 = 0.0003534 | 741
313 K, 12930 kPa, x1 = 0.0003534 | 744.7
313 K, 13150 kPa, x1 = 0.0003534 | 749.3
313 K, 13330 kPa, x1 = 0.0003534 | 753
313 K, 13680 kPa, x1 = 0.0003534 | 759.8
313 K, 13940 kPa, x1 = 0.0003534 | 764.4
313 K, 14120 kPa, x1 = 0.0003534 | 767.7
313 K, 14410 kPa, x1 = 0.0003534 | 772.7
313 K, 14570 kPa, x1 = 0.0004968 | 774.5
313 K, 14650 kPa, x1 = 0.0003534 | 776.6
313 K, 14940 kPa, x1 = 0.0005357 | 780.5
313 K, 14960 kPa, x1 = 0.0004968 | 780.9
313 K, 15030 kPa, x1 = 0.0003534 | 782.7
313 K, 15570 kPa, x1 = 0.0003534 | 790.5
313 K, 15970 kPa, x1 = 0.0004968 | 795.6
313 K, 16020 kPa, x1 = 0.0005357 | 795.7
313 K, 16050 kPa, x1 = 0.0003534 | 797
313 K, 16230 kPa, x1 = 0.0005357 | 798.5
313 K, 16430 kPa, x1 = 0.0005357 | 801.3
313 K, 16610 kPa, x1 = 0.0005357 | 803.4
313 K, 16820 kPa, x1 = 0.0005357 | 806
313 K, 17030 kPa, x1 = 0.0005357 | 808.5
313 K, 17040 kPa, x1 = 0.0003534 | 810.1
313 K, 17070 kPa, x1 = 0.0006302 | 809.1
313 K, 17120 kPa, x1 = 0.0004968 | 810
313 K, 17500 kPa, x1 = 0.0006302 | 814.3
313 K, 17610 kPa, x1 = 0.0006348 | 816.9
313 K, 17620 kPa, x1 = 0.0004968 | 815.9
313 K, 17810 kPa, x1 = 0.0006348 | 819
313 K, 17970 kPa, x1 = 0.0006302 | 819.5
313 K, 18010 kPa, x1 = 0.0006348 | 821
313 K, 18030 kPa, x1 = 0.0003534 | 821.3
313 K, 18050 kPa, x1 = 0.0004968 | 820.6
313 K, 18070 kPa, x1 = 0.0005357 | 820
313 K, 18180 kPa, x1 = 0.0006348 | 823.1
313 K, 18300 kPa, x1 = 0.0006348 | 824.3
313 K, 18400 kPa, x1 = 0.0006348 | 825.2
313 K, 18510 kPa, x1 = 0.0006348 | 826.4
313 K, 18600 kPa, x1 = 0.0006348 | 827.4
313 K, 18700 kPa, x1 = 0.0006348 | 828.4
313 K, 18790 kPa, x1 = 0.0006348 | 829.4
313 K, 18910 kPa, x1 = 0.0006348 | 830.6
313 K, 18990 kPa, x1 = 0.0006302 | 830.2
313 K, 19000 kPa, x1 = 0.0004968 | 830.5
313 K, 19040 kPa, x1 = 0.0003534 | 831.8
313 K, 19070 kPa, x1 = 0.0005357 | 830.9
313 K, 19070 kPa, x1 = 0.0006348 | 832.2
313 K, 19960 kPa, x1 = 0.0004968 | 839.8
313 K, 19990 kPa, x1 = 0.0006302 | 839.7
313 K, 20050 kPa, x1 = 0.0003534 | 841.4
313 K, 20060 kPa, x1 = 0.0005357 | 840.4
313 K, 20090 kPa, x1 = 0.0006348 | 841.8
313 K, 20150 kPa, x1 = 0.0007923 | 843.3
313 K, 20300 kPa, x1 = 0.0007923 | 844.6
313 K, 20540 kPa, x1 = 0.0007923 | 846.7
313 K, 20740 kPa, x1 = 0.0007923 | 848.5
313 K, 20940 kPa, x1 = 0.0007923 | 850.2
313 K, 21000 kPa, x1 = 0.0006302 | 848.7
313 K, 21010 kPa, x1 = 0.0006348 | 849.8
313 K, 21020 kPa, x1 = 0.0004968 | 849.3
313 K, 21040 kPa, x1 = 0.0003534 | 850.3
313 K, 21050 kPa, x1 = 0.0005357 | 849.1
313 K, 21120 kPa, x1 = 0.0007923 | 851.7
313 K, 21300 kPa, x1 = 0.0007923 | 853.3
313 K, 21520 kPa, x1 = 0.0007923 | 855
313 K, 21700 kPa, x1 = 0.0008682 | 855
313 K, 21710 kPa, x1 = 0.0007923 | 856.7
313 K, 21970 kPa, x1 = 0.0007923 | 858.7
313 K, 21980 kPa, x1 = 0.0003534 | 858
313 K, 22020 kPa, x1 = 0.0004968 | 857.5
313 K, 22020 kPa, x1 = 0.0006348 | 858.2
313 K, 22020 kPa, x1 = 0.0008682 | 857.3
313 K, 22030 kPa, x1 = 0.0005357 | 857.3
313 K, 22050 kPa, x1 = 0.0006302 | 857.5
313 K, 22230 kPa, x1 = 0.0007923 | 860.8
313 K, 22470 kPa, x1 = 0.0008682 | 861
313 K, 22650 kPa, x1 = 0.0007923 | 864
313 K, 22790 kPa, x1 = 0.0004968 | 863.5
313 K, 22910 kPa, x1 = 0.0007923 | 865.9
313 K, 22930 kPa, x1 = 0.0008981 | 864.8
313 K, 22990 kPa, x1 = 0.0003534 | 866
313 K, 23000 kPa, x1 = 0.0006302 | 864.9
313 K, 23030 kPa, x1 = 0.0005357 | 865.1
313 K, 23050 kPa, x1 = 0.0006348 | 866
313 K, 23070 kPa, x1 = 0.0008682 | 865.7
313 K, 23280 kPa, x1 = 0.0008981 | 867.3
313 K, 23520 kPa, x1 = 0.0007923 | 868.9
313 K, 23550 kPa, x1 = 0.0008682 | 869.1
313 K, 23570 kPa, x1 = 0.0008981 | 869.5
313 K, 23790 kPa, x1 = 0.0006348 | 871.5
313 K, 23810 kPa, x1 = 0.0008981 | 871.1
313 K, 23990 kPa, x1 = 0.0005357 | 872.2
313 K, 24000 kPa, x1 = 0.0006302 | 872.3
313 K, 24010 kPa, x1 = 0.0004968 | 872.7
313 K, 24010 kPa, x1 = 0.0008981 | 872.6
313 K, 24020 kPa, x1 = 0.0007923 | 871.6
313 K, 24040 kPa, x1 = 0.0008682 | 872.7
313 K, 24050 kPa, x1 = 0.0003534 | 873.7
313 K, 24460 kPa, x1 = 0.0008682 | 875.8
313 K, 24640 kPa, x1 = 0.0005357 | 876.7
313 K, 24740 kPa, x1 = 0.0006302 | 877.4
313 K, 24780 kPa, x1 = 0.0008981 | 877.9
313 K, 25030 kPa, x1 = 0.0004968 | 879.6
318 K, 10140 kPa, x1 = 0.0001436 | 535.9
318 K, 10290 kPa, x1 = 0.0001436 | 551.9
318 K, 10550 kPa, x1 = 0.0001436 | 577.8
318 K, 10890 kPa, x1 = 0.0001436 | 604.2
318 K, 11230 kPa, x1 = 0.0001436 | 626.2
318 K, 11520 kPa, x1 = 0.0001436 | 641.2
318 K, 11870 kPa, x1 = 0.0001436 | 657.3
318 K, 12190 kPa, x1 = 0.0001436 | 670.6
318 K, 12480 kPa, x1 = 0.0001436 | 680.9
318 K, 12820 kPa, x1 = 0.0001436 | 692
318 K, 13110 kPa, x1 = 0.0001436 | 700.3
318 K, 13390 kPa, x1 = 0.0001436 | 708.3
318 K, 13730 kPa, x1 = 0.0001436 | 716.8
318 K, 14030 kPa, x1 = 0.0001436 | 723.9
318 K, 14520 kPa, x1 = 0.0001436 | 734.8
318 K, 14990 kPa, x1 = 0.0001436 | 744
318 K, 16050 kPa, x1 = 0.0001436 | 762.8
318 K, 17010 kPa, x1 = 0.0001436 | 777.4
318 K, 17690 kPa, x1 = 0.0001436 | 786.8
318 K, 18080 kPa, x1 = 0.0001436 | 791.8
318 K, 18990 kPa, x1 = 0.0001436 | 802.8
318 K, 19750 kPa, x1 = 0.0001436 | 811.4
318 K, 21720 kPa, x1 = 0.001828 | 831.3
318 K, 21990 kPa, x1 = 0.001828 | 833.9
318 K, 22510 kPa, x1 = 0.001828 | 838.4
318 K, 23010 kPa, x1 = 0.001828 | 842.7
318 K, 23350 kPa, x1 = 0.001112 | 845.5
318 K, 23520 kPa, x1 = 0.001828 | 846.9
318 K, 23920 kPa, x1 = 0.001112 | 849.8
318 K, 24050 kPa, x1 = 0.001112 | 850.8
318 K, 24050 kPa, x1 = 0.001828 | 850.9
318 K, 24090 kPa, x1 = 0.001112 | 851.1
318 K, 24270 kPa, x1 = 0.001112 | 852.5
318 K, 24430 kPa, x1 = 0.001112 | 853.7
318 K, 24510 kPa, x1 = 0.001112 | 854.2
318 K, 24560 kPa, x1 = 0.001828 | 854.7
318 K, 24610 kPa, x1 = 0.001112 | 855
318 K, 24770 kPa, x1 = 0.001112 | 856.3
318 K, 24930 kPa, x1 = 0.001112 | 857.5
318 K, 25040 kPa, x1 = 0.001112 | 858.3
